Assay results published in patent US10858305B2, “Perillyl alcohol-3-bromopyruvate conjugate and methods of treating cancer” (NeOnc Technologies, Inc., priority 2016, dated 2020).

Experiments:
MDA-MB-231 cells = assay: Colony formation assay in MDA-MB-231 cells; assay type: cell-based; settings: Homo sapiens; MDA-MB-231, 48 hours drug then 10-14 days; read-out: effective concentration (half-maximal), CFA
Method: (A) MTT assay was performed after 24 hours. […] (B) LDH assay was performed after […]. LDH release by untreated cells was set to 1. Relative fold increase is shown (n=3).
(A) MTT assay was performed after 24 hours. Viability of untreated cells was set at 100% (data points are averages of 2 experiments). (B) LDH assay was performed after 24 hours. LDH release by untreated cells was set to 1. Relative fold increase is shown (averages from 2 experiments). (C) Representative photos show typical colony formation after initial 48 hours of drug treatment. In all cases of combination treatment with 3-BP mixed with […] (3-BP+POH), the indicated concentrations refer to each individual drugs, i.e., 100 μM 3-BP+POH means that 100 μM 3-BP was combined with 100 μM POH.
Depending on the cell line (and plating efficiency), 250-800 cells were seeded into each well of a 6-well plate and treated as described in detail previously. After 12-16 days, colonies (defined as groups of >50 cells) were visualized by staining for 4 hours with 1% methylene blue (in methanol), and then were-counted. Experiments were repeated at least once, but usually more often under different conditions.

[1] = test system: MDA-MB-231 triple-negative breast cancer cells; assay: Subcutaneous MDA-MB-231 xenograft in nude mice; assay type: in vivo; settings: 5 mg/kg on days 1, 5, 9
Method: The anticancer activity of NEO218 in vivo was investigated next. MDA-MB-231 triple-negative breast cancer cells were subcutaneously implanted into 12 nude mice. After two weeks, the animals were separated into 2 groups for treatment with either vehicle (no drug) or NEO218 (5 mg/kg). Then, NEO218 (or vehicle) was administered on days 1, 5, and 9 (3 doses total, 4 days apart). Tumor growth was measured with calipers every 3 days from day 1 (=start of treatment) until day 13 (end of experiment).
The panels show tumor growth over time for each individual animal.

[2] = test system: MDA-MB-231, T47D, T98G, U251, HCT116 and A2780 cancer cells; assay: MTT assay, cell viability after 48 hours in six cancer cell lines; assay type: cell-based, human
Text: The tumor cell-killing potency of NEO218 was characterized by in vitro, short-term MTT assays (measuring viability of cells via determination of metabolic activity), LDH assays (measuring the release of lactate dehydrogenase as an indicator of leaky cell membranes, which are indicative of dying cells), and colony-formation assays (CFA, which determine long-term survival of drug-treated cells and their ability to spawn a colony of descendants). Several established cell lines derived from cancers of the breast were used as target cells (including MDA-MB-231; MDA-MB-468; T47D; MCF7; MCF7/Dox; BTB12), brain (T98G; U251), ovary (A2780), and colon (HCT116). In all cases, cells in culture were exposed to increasing concentrations of agents for 24 or 48 hours.
Cell lines from different cancer types were treated with increasing concentrations of 3-bromopyruvate (3-BP) or NEO218. After 48 hours, cell viability was measured by MTT assay. MDA-MB-231 and T47D are breast cancer cells; T98G and U251 are brain cancer (glioblastoma) cells; HCT116 are colon cancer cells; A2780 are ovarian cancer cells.

## O=C(O)C(=O)CBr [3-BP, 3-bromopyruvate]
MDA-MB-231 cells
  IC50: ~130 µM

## C=C(C)[C@@H]1CC=C(COC(=O)C(=O)CBr)CC1 [NEO218, 3-bromo-2-oxo-propionic acid 4-isopropenyl-cyclohex-1-enylmethyl ester]
[1]
  organ toxicity or other side effects: organ toxicity or other side effects were not detected
  tolerability in mice: tolerated this compound quite well
  tumor growth compared with vehicle group: slower tumor growth
[1]; day 13, all animals
  tumor volume at the end of the experiment: below 200 cubic millimeters
[2]; Homo sapiens, all six cell lines
  IC50: 15 to 40 µM
[2]; MTT
  cancer cell killing effects compared with 3-BP: more potent cancer cell killing effects than 3-BP in all cell lines
